Source: ChEMBL document CHEMBL4507272 (2021)

Columns and labels:
Details in all cases: Compound concentration 1000.0 nM
[1] = biological target: Myotonin-protein kinase (Homo sapiens) (UniProt Q09013)
[2] = biological target: Casein kinase I isoform alpha-like (Homo sapiens) (UniProt Q8N752)
[3] = system: Epidermal growth factor receptor (Homo sapiens), P00533 [UNDEFINED MUTATION]
[4] = biological target: Tyrosine-protein kinase ZAP-70 (Homo sapiens) (UniProt P43403)
[5] = biological target: NUAK family SNF1-like kinase 2 (Homo sapiens) (UniProt Q9H093)
[6] = biological target: Cyclin-dependent kinase 15 (Homo sapiens) (UniProt Q96Q40)
Chain of Cyclin-dependent kinase 15 (Homo sapiens) (Q96Q40 whole entry): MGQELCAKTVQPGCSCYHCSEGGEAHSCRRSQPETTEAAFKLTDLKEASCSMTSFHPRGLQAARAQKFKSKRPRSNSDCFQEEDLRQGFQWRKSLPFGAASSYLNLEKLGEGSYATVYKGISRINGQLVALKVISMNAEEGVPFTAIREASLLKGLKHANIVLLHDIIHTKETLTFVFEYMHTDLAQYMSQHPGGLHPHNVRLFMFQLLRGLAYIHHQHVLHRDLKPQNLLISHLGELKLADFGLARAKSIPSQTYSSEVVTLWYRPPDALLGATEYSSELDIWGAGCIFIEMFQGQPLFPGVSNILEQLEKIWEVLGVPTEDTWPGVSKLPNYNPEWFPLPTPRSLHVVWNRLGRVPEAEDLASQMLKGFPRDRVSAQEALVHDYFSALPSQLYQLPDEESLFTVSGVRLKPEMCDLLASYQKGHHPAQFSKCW

[7] = biological target: Aurora kinase B (Homo sapiens) (UniProt Q96GD4)
[8] = biological target: Tyrosine-protein kinase JAK3 (Homo sapiens) (UniProt P52333)
[9] = biological target: Mitogen-activated protein kinase kinase kinase kinase 5 (Homo sapiens) (UniProt Q9Y4K4)
[10] = biological target: Serine/threonine-protein kinase 32B (Homo sapiens) (UniProt Q9NY57)
Chain of Serine/threonine-protein kinase 32B (Homo sapiens) (Q9NY57 whole entry): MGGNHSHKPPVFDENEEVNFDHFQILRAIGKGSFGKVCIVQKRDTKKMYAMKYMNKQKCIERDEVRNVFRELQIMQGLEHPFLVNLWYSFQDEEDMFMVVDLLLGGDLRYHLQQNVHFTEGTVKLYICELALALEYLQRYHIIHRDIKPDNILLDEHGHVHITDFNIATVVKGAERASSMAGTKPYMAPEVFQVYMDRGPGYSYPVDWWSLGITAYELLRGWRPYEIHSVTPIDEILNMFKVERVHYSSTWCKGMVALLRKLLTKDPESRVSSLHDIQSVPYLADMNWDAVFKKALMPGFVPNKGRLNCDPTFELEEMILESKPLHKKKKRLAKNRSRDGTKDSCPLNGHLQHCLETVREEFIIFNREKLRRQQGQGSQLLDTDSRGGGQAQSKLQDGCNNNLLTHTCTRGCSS

[11] = biological target: Cyclin-dependent kinase 16 (Homo sapiens) (UniProt Q00536)
Chain of Cyclin-dependent kinase 16 (Homo sapiens) (Q00536 whole entry): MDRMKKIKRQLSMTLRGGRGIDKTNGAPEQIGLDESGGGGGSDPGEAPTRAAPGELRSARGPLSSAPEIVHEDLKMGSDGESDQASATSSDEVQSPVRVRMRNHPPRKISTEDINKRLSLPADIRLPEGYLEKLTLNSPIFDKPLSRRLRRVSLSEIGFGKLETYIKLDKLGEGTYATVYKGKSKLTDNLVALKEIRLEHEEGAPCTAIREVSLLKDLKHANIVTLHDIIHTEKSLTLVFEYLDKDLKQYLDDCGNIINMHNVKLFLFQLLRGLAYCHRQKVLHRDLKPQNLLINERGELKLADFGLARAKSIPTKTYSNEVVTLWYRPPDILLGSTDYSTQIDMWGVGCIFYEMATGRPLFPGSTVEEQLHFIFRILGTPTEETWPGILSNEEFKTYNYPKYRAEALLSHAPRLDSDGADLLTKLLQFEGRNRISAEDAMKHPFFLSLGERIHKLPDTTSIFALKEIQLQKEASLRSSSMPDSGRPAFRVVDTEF

[12] = system: Tyrosine-protein kinase ABL1 (Homo sapiens), P00519 [F317I]
[13] = biological target: Vascular endothelial growth factor receptor 3 (Homo sapiens) (UniProt P35916)
[14] = biological target: Protein kinase C theta type (Homo sapiens) (UniProt Q04759)
Chain of Protein kinase C theta type (Homo sapiens) (Q04759 whole entry, looked up): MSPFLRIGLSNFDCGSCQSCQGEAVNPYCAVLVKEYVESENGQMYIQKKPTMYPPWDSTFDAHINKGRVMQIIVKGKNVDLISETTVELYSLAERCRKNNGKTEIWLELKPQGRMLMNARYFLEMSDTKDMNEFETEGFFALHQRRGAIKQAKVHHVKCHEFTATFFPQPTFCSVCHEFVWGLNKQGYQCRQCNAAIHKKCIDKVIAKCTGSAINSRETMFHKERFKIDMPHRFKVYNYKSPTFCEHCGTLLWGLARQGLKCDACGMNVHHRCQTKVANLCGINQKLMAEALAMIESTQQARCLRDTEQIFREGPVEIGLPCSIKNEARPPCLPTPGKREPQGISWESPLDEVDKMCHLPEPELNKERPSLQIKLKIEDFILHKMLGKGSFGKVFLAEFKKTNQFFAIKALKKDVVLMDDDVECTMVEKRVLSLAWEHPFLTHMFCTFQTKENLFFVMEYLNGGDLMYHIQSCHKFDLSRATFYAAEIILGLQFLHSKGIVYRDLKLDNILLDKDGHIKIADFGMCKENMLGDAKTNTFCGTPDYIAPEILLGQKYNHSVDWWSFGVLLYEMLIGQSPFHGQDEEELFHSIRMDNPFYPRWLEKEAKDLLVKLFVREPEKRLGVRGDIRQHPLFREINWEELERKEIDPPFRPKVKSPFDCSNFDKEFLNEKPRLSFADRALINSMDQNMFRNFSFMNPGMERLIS

[15] = biological target: Tyrosine-protein kinase Tec (Homo sapiens) (UniProt P42680)
Chain of Tyrosine-protein kinase Tec (Homo sapiens) (P42680 whole entry): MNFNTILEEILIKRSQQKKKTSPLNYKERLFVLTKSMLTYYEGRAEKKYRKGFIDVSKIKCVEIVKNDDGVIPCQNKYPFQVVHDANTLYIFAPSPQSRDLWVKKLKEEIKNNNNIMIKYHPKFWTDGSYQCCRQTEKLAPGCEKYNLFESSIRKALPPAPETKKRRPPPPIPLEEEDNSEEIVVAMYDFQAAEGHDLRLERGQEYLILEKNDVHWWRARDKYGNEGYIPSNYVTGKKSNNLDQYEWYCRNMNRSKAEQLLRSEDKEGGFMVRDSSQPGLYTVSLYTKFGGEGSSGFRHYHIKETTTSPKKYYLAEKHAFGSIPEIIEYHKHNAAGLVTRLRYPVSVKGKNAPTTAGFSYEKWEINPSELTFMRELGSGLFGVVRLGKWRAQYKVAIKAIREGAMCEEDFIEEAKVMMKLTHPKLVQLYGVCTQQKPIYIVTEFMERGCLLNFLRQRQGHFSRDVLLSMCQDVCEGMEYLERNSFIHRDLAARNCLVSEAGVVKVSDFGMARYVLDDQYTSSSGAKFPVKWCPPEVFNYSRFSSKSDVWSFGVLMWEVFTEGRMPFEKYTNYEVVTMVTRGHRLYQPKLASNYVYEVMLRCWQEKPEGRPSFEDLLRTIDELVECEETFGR

[16] = system: Tyrosine-protein kinase ABL1 (Homo sapiens), P00519 [H396P]
[17] = system: Mast/stem cell growth factor receptor Kit (Homo sapiens), P10721 [D816H]
Chain of Mast/stem cell growth factor receptor Kit (Homo sapiens), P10721 [D816H] (P10721 whole entry D816H): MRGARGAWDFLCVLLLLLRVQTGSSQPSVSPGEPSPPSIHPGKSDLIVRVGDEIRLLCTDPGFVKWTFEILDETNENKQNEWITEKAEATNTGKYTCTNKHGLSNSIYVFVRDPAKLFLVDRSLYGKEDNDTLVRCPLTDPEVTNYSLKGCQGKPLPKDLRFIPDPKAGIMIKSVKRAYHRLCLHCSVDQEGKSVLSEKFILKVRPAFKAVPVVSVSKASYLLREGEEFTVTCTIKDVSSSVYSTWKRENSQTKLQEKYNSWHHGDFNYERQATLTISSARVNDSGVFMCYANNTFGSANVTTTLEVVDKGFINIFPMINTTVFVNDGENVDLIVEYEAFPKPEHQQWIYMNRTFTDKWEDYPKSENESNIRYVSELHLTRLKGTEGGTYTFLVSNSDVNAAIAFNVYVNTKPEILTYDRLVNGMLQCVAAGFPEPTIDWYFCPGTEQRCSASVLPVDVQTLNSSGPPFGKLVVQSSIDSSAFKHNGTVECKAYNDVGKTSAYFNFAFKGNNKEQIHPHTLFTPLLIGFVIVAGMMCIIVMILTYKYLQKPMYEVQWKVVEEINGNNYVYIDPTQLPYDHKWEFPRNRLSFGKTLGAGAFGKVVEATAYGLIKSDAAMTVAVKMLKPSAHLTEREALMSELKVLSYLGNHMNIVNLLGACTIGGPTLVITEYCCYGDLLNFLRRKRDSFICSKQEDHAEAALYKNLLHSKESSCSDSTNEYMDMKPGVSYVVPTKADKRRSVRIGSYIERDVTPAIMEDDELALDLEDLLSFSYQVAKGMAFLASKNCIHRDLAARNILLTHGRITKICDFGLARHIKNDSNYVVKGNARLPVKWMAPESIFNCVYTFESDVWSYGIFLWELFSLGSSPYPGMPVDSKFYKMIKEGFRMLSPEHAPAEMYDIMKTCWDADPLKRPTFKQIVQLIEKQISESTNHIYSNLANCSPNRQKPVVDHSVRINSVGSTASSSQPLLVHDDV

Measured: residual activity

Chain of Myotonin-protein kinase (Homo sapiens) (Q09013 whole entry, canonical isoform): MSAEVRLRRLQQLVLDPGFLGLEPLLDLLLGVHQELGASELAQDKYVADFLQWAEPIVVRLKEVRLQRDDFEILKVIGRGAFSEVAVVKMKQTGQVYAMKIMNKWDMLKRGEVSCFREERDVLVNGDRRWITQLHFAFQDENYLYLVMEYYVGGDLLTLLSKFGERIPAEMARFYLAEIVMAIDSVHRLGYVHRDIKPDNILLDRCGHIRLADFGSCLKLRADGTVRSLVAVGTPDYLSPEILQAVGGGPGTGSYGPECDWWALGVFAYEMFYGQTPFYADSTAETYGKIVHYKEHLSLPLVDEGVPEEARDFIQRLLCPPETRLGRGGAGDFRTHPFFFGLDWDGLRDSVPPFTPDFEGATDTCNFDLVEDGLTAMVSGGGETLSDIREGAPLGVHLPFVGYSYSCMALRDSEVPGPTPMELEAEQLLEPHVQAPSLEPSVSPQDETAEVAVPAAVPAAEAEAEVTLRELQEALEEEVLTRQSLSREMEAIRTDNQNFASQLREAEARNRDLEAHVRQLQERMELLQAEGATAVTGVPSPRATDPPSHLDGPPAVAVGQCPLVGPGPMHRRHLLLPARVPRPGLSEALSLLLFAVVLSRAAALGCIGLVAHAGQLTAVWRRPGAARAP
Chain of Tyrosine-protein kinase ZAP-70 (Homo sapiens) (P43403 whole entry): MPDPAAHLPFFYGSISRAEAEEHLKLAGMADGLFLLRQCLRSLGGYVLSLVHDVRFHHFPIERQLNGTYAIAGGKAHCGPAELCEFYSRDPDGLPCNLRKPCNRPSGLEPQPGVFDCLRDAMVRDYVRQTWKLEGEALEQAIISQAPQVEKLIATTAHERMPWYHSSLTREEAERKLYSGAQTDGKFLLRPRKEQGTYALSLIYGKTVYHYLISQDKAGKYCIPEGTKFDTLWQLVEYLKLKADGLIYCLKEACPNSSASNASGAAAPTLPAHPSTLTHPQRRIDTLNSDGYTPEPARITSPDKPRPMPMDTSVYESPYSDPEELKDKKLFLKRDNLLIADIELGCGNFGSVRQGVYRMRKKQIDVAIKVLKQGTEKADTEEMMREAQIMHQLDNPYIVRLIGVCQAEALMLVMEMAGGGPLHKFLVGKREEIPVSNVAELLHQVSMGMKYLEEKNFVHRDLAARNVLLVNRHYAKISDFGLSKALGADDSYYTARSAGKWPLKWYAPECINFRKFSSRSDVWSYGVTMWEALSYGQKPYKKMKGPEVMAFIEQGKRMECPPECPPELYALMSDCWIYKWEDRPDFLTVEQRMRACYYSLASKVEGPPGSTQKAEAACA

CC(=O)C1=C(C)N(c2cccc(C(F)(F)F)c2)C(=O)N[C@@H]1c1ccc(C#N)nc1 [BAY-678]
inactive: [1] 86.5% | [2] 100% | [3] 80.3% | [4] 88.1% | [5] 100% | [6] 100% | [7] 100% | [8] 70.5% | [9] 100% | [10] 100% | [11] 100% | [12] 100% | [13] 100% | [14] 83.3% | [15] 100% | [16] 87.1% | [17] 100%
